Assay results: US7052714B1, “Ophthalmic adhesive preparations for percutaneous adsorption” (Senju Pharmaceutical Co., LTD, priority 1999, dated 2006)
Values joined by “and” are separate entries in the source; they are usually repeats but may differ in a detail not shown here. Equal entries are not always repeated. Where two headings read alike, the source gives them in different places. Each block holds one molecule with its values, some of them ahead of it.

Key:
[1] = in vivo; conditions: male, Wistar/ST, rat
Method: (§1) 0.5-ml blood sampling was performed over time through a sampling port of the cannula placed on the occipital region of the rat's head. For measurement of transfer of the drug to the ocular tissues, rats were euthanized with an excess amount of sodium pentobarbital solution and the ocular tissues were removed. The tissues were pretreated, extracted and measured to determine the concentration of the drug by HPLC.
(§2) Determination of the concentration of N-(4-fluorophenylsulfonyl)-L-valyl-L-leucinal in the samples was carried out by HPLC under the following conditions.

[2] = male, Wistar/ST, rat, in vivo
Method: as §1, §2

[3] = In vivo test-1: transfer of drugs from transdermal patches to the plasma and ocular tissues
Method: as §1, §2

[4] = In vivo test-2: SJA6017 transdermal patch, transfer to the plasma and ocular tissues; parameters: species or system Wistar/ST rats; conditions: transdermal application, 12 hours after application
Text: A study of SJA6017-containing transdermal patch according to the formula below was made for examining transfer of SJA6017 from the patch to the plasma and to the ocular tissues, and comparison of the results with those from intravenous injection was also made.
The hair was removed under anesthesia with a clipper and a shaver carefully to avoid injuring the skin. A SJA6017 transdermal patch having a drug-containing layer according to the above formula with the size of 5.0×6.0 cm (30 cm^2) was applied to the animals (n=10) of the percutaneous administration group on the abdominal skin and secured in position with a supporting tape to prevent it from falling. After 12 hours of application, the animals were sacrificed and the blood was collected from the abdominal aorta, and the plasma separated. The eyes were excised at the same time. Each of the eyes was separated into the aqueous humor, the lens and the other tissues (consisting of the cornea, the sclera, the iris-ciliary body, the vitreous body and the retina-choroid), and corresponding tissues separated from the 20 eyes were combined, respectively, to make a sample.

[5] = In vivo test-2: intravenous administration experiment; parameters: species or system Wistar rats; conditions: intravenous injection 2 mg/kg, rat, 15 minutes after injection
Method: An intravenous administration experiment was carried out using 5 male Wistar rats (body weight approx. 600 g: 592±34 g) by administering 2 mg/kg SJA6017 through the tail vein of the animals under pentobarbital anesthesia. For the administration, a solution was used containing 10 mg SJA6017 dissolved in 10 ml mixture of ethanol/PEG400/water (1/2/1). Fifteen minutes after the intravenous administration, the animals were sacrificed, the blood was collected through the abdominal aorta, and the plasma separated. The eyes were excised at the same time. Each of the eyes was separated into the aqueous humor, the lens and the other tissues (consisting of the cornea, the sclera, the iris-ciliary body, the vitreous body and the retina-choroid), and corresponding tissues separated from the 10 eyes were combined, respectively, to make a sample.

[6] = male, Wistar/ST, rat, plasma, other: transdermal patch applied on the abdominal skin, 10 cm^2
[7] = male, Wistar/ST, rat, plasma, other: transdermal patch applied on the abdominal skin, 10 cm^2 patch

concentration at 0 h [1]: 0 ng/mL
concentration at 2 h [1]: 220 ng/mL
concentration at 4 h [1]: 288 ng/mL
concentration at 6 h [1]: 70 ng/g and 385 ng/mL
concentration at 8 h [1]: 608 ng/mL
concentration at 12 h [1]: 148 ng/mL
concentration at 18 h [1]: 99 ng/mL
concentration at 24 h [1]: 77 ng/mL
time after application at which plasma concentration reached the peak [2]: 8 h
Compound: C[C@]12C=CC(=O)C=C1CC[C@@H]1[C@@H]2[C@@H](O)C[C@@]2(C)[C@H]1CC[C@]2(O)C(=O)CO [Prednisolone, prednisolone]

time after application at which plasma concentration reached the peak ([3]; SJA6017 patch No. S4, 10 cm^2, rat): 12 h
plasma concentration 24 hours after application relative to its peak ([3]; SJA6017 patch No. S4, 10 cm^2, rat, 24 hours): about 85%
concentration at 8 h [3, 6]: 50 ng/mL
concentration at 12 h [3, 6]: 114 ng/mL
concentration at 18 h [3, 6]: 68 ng/mL
concentration at 24 h [3, 6]: 98 ng/mL
concentration at 0 h [3, 7]: 0 ng/mL
concentration at 2 h [3, 7]: 30 ng/mL
concentration at 4 h [3, 7]: 36 ng/mL
concentration at 6 h [3, 7]: 58 ng/mL
concentration at 12 h ([4]; male, Wistar/ST, eye (ocular tissues), other: transdermal patch applied on the abdominal skin, 30 cm^2 patch, 5 W/W% SJA6017 patch 30 cm^2, rat, read-out: Intraocular concentration): 7.2 ng/g
concentration at 12 h ([4]; male, Wistar/ST, lens, other: transdermal patch applied on the abdominal skin, 30 cm^2 patch, SJA6017 patch 30 cm^2, rat, read-out: Intraocular concentration, itemized: Lens): 1.1 ng/g
concentration at 12 h ([4]; male, Wistar/ST, other: transdermal patch applied on the abdominal skin, 30 cm^2 patch, SJA6017 patch 30 cm^2, rat, read-out: Intraocular concentration, itemized: Other ocular tissues (cornea, sclera, iris-ciliary body, vitreous body, retina-choroid)): 13.8 ng/g
concentration at 12 h ([4]; male, Wistar/ST, plasma, other: transdermal patch applied on the abdominal skin, 30 cm^2 patch, 5 W/W% SJA6017 patch 30 cm^2, rat, read-out: Plasma concentration): 47 ± 12 ng/mL
Kp at 12 h ([4]; male, Wistar/ST, rat, eyeball/plasma, other: transdermal patch applied on the abdominal skin, 30 cm^2 patch, SJA6017 patch 30 cm^2, rat, read-out: Eyeball/plasma ratio): ~0.16
Intraocular concentration, itemized: Aqueous humor ([4]; SJA6017 patch 30 cm^2, rat): not detected
Lens: ratio to plasma concentration (100%) ([4]; SJA6017 patch 30 cm^2, rat): (2.3%)*^2
Other ocular tissues: ratio to plasma concentration (100%) ([4]; SJA6017 patch 30 cm^2, rat): (29.6%)*^2
Intraocular concentration, itemized: Aqueous humor [5]: not detected
Intraocular concentration, itemized: Lens [5]: not detected
Other ocular tissues: ratio to plasma concentration (100%) [5]: (27.8%)*^2
Eyeball/plasma ratio ([5]; 2 mg/kg): 13%
concentration at 15 min ([5]; male, Wistar, eye (ocular tissues), read-out: Intraocular concentration): 16 ng/g
Kp at 15 min ([5]; male, Wistar, eyeball/plasma, read-out: Eyeball/plasma ratio): 0.13
concentration at 15 min ([5]; male, Wistar, plasma, read-out: Plasma concentration): 120 ± 16 ng/mL
concentration at 15 min ([5]; male, Wistar, read-out: Intraocular concentration, itemized: Other ocular tissues (cornea, sclera, iris-ciliary body, vitreous body, retina-choroid)): 33.4 ng/g
Compound: CC(C)C[C@@H](C=O)NC(=O)[C@@H](NS(=O)(=O)c1ccc(F)cc1)C(C)C [SJA6017, N-(4-fluorophenylsulfonyl)-L-valyl-L-leucinal]
